Results published in patent US20070128217A1 (priority 2003, published 2007).

What was measured:
[1] = tested on: control sera (pooled serum of ten healthy LUMC hospital workers; commercial negative donor pooled serum from the Dutch bloodbank); type: binding, human; design: Binding of Control serum LUMC to linear peptides / Binding of Control serum Blood-bank to linear peptides / Binding of Control serum LUMC to looped peptides / Binding of Control Serum Blood-Bank to Looped peptides / Binding of Control serum LUMC to linear peptides of the protein M of SARS-CoV Urbani / Binding of Control serum Blood-bank to linear peptides of the protein M of SARS-CoV Urbani / Binding of Control serum LUMC to looped peptides of the protein M of SARS-CoV Urbani / Binding of Control Serum Blood-Bank to Looped peptides of the protein M of SARS-CoV Urbani: unit not given here
[2] = tested on: rabbit serum obtained by immunizing a rabbit with the SARS-CoV strain Frankfurt 1; type: binding; design: Binding of a rabbit serum to linear peptides / Binding of a rabbit serum to looped peptides / Rabbit serum linear peptides / Rabbit serum looped peptides / Binding of a rabbit serum to linear peptides of protein N of SARS-CoV Urbani (Rabbit serum linear peptides) / Binding of a rabbit serum to looped/cyclic peptides of protein N of SARS-CoV Urbani (Rabbit serum looped peptides): unit not given here
[3] = tested on: antibodies in sera from SARS patients (sera 1a, 1b, 2, 6, 37, 62, London, SARS-yellow, SARS-green); type: binding, human; design: Binding of serum 6 to linear peptides of protein X1 of SARS-CoV Urbani / Binding of serum 37 to linear peptides of protein X1 of SARS-CoV Urbani / Binding of serum 6 to looped/cyclic peptide (PEPSCAN-ELISA) / Binding of serum 37 to looped/cyclic peptide (PEPSCAN-ELISA) / Binding of serum 37 to looped/cyclic peptides of protein X1 of SARS-CoV Urbani / Binding of serum 6 to linear peptides of protein X2 / Binding of serum 37 to linear peptides of protein X2 / Binding of serum 37 to looped/cyclic peptides of protein X2 of SARS-CoV Urbani / Binding of serum 6 to linear peptides of protein M of SARS-CoV Urbani / Binding of serum 37 to linear peptides of protein M of SARS-CoV Urbani / Binding of serum 6 to looped/cyclic peptides of protein M of SARS-CoV Urbani / Binding of serum 37 to looped/cyclic peptides of protein M of SARS-CoV Urbani / Binding of serum 6 to linear peptides of protein X3 of SARS-CoV Urbani / Binding of serum 37 to linear peptides of protein X3 of SARS-CoV Urbani / Binding of serum 37 to looped/cyclic peptides of protein X3 of SARS-CoV Urbani / Binding of serum 6 to linear peptides of protein X4 of SARS-CoV Urbani / Binding of serum 37 to linear peptides of protein X4 of SARS-CoV Urbani / Binding of serum 37 to looped/cyclic peptides of protein X4 of SARS-CoV Urbani / Binding of serum 6 to linear peptides of protein X5 of SARS-CoV Urbani / Binding of serum 37 to linear peptides of protein X5 of SARS-CoV Urbani / Binding of serum 37 to looped/cyclic peptides of protein X5 of SARS-CoV Urbani / Binding of serum 6 to linear peptides of protein N of SARS-CoV Urbani / Binding of serum 37 to linear peptides of protein N of SARS-CoV Urbani / Binding of serum 6 to linear peptide (PEPSCAN-ELISA) / Binding of serum 1a to looped/cyclic peptides of protein N of SARS-CoV Urbani / Binding of serum 1b to looped/cyclic peptides of protein N of SARS-CoV Urbani / Binding of serum 2 to looped/cyclic peptides of protein N of SARS-CoV Urbani / Binding of serum 6 to looped/cyclic peptides of protein N of SARS-CoV Urbani / Binding of serum 37 to looped/cyclic peptides of protein N of SARS-CoV Urbani / Binding of serum 62 to looped/cyclic peptides of protein N of SARS-CoV Urbani / Binding of serum London to looped/cyclic peptides of protein N of SARS-CoV Urbani / Binding of serum SARS-green to looped/cyclic peptides of protein N of SARS-CoV Urbani: unit not given here

Sequence | Binding of Control Serum Blood-Bank to Looped peptides [1] | Binding of Control serum Blood-bank to linear peptides [1] | Binding of Control serum LUMC to linear peptides [1] | Binding of Control serum LUMC to looped peptides [1] | Binding of a rabbit serum to linear peptides [2] | Binding of a rabbit serum to looped peptides [2] | Rabbit serum linear peptides [2] | Rabbit serum looped peptides [2] | further results
DRHSGVKDYVVVHGY | 0.6 | 0.7 | 0.7 | 0.4 | 0.1 | 0.5 |  |  | 
DYCIPYNSVTDTIVV | 0.7 | 0.7 | 0.6 | 0.9 | 0.1 | 0.5 |  |  | 
ECVRGTTVLLKEPCP | 0.9 | 0.9 | 0.7 | 0.8 |  |  | 0.6 | 0.4 | 
EGHQTAAFRDVLVVL | 0.9 | 0.7 | 0.9 | 1.6 |  |  | 0.3 | 0.6 | 
EILIIIMRTFRIAIW |  |  |  |  |  |  | 0.5 | 0.3 | Binding of Control Serum Blood-Bank to Looped peptides of the protein X3 of SARS-CoV Urbani [1]: 0.6; Binding of Control serum Blood-bank to linear peptides of the protein X3 of SARS-CoV Urbani [1]: 0.8; Binding of Control serum LUMC to linear peptides of the protein X3 of SARS-CoV Urbani [1]: 0.5; Binding of Control serum LUMC to looped peptides of the protein X3 of SARS-CoV Urbani [1]: 0.6
ELYHYQECVRGTTVL | 0.7 | 0.7 | 0.6 | 0.7 |  |  | 0.7 | 0.7 | 
FFIFNKLVKDPPNVQ | 0.5 | 0.6 | 0.7 | 0.6 | 0.1 | 0.5 |  |  | 
FIFNKLVKDPPNVQI | 0.8 | 0.8 | 0.8 | 0.7 | 0.1 | 0.7 |  |  | 
FKPLTKKNYSELDDE |  |  |  |  |  |  | 0.5 | 0.5 | Binding of Control Serum Blood-Bank to Looped peptides of the protein X3 of SARS-CoV Urbani [1]: 0.8; Binding of Control serum Blood-bank to linear peptides of the protein X3 of SARS-CoV Urbani [1]: 0.8; Binding of Control serum LUMC to linear peptides of the protein X3 of SARS-CoV Urbani [1]: 0.8; Binding of Control serum LUMC to looped peptides of the protein X3 of SARS-CoV Urbani [1]: 0.8
FQHQNSKKTTKLVVI | 0.4 | 0.5 | 0.7 | 0.5 |  |  |  |  | Recognition of the peptide by the rabbit serum [2]: recognized
WQLALYKGFQFICNL |  |  |  |  | 0.5 | 0.6 |  |  | Binding of serum 1a to linear peptides of protein X1 of SARS-CoV Urbani [3]: 0.6; Binding of serum 1a to looped/cyclic peptide (PEPSCAN-ELISA) [3]: 0.6; Binding of serum 1b to linear peptides of protein X1 of SARS-CoV Urbani [3]: 0.2; Binding of serum 1b to looped/cyclic peptide (PEPSCAN-ELISA) [3]: 0.3; Binding of serum 2 to linear peptides of protein X1 of SARS-CoV Urbani [3]: 0.4; Binding of serum 2 to looped/cyclic peptide (PEPSCAN-ELISA) [3]: 0.4; Binding of serum 6 to linear peptides of protein X1 of SARS-CoV Urbani [3]: 0.5; Binding of serum 6 to looped/cyclic peptide (PEPSCAN-ELISA) [3]: 1.3; Binding of serum 37 to linear peptides of protein X1 of SARS-CoV Urbani [3]: 0.3; Binding of serum 37 to looped/cyclic peptide (PEPSCAN-ELISA) [3]: 0.5; Binding of serum 62 to linear peptides of protein X1 of SARS-CoV Urbani [3]: 0.4; Binding of serum 62 to looped/cyclic peptide (PEPSCAN-ELISA) [3]: 0.5; Binding of serum London to linear peptides of protein X1 of SARS-CoV Urbani [3]: 0.2; Binding of serum London to looped/cyclic peptide (PEPSCAN-ELISA) [3]: 1.5; Binding of serum SARS-green to linear peptides of protein X1 of SARS-CoV Urbani [3]: 0.3; Binding of serum SARS-green to looped/cyclic peptide (PEPSCAN-ELISA) [3]: 0.3; Binding of serum SARS-yellow to linear peptides of protein X1 of SARS-CoV Urbani [3]: 0.4; Binding of serum SARS-yellow to looped/cyclic peptide (PEPSCAN-ELISA) [3]: 0.5
